Data: patent publication US6613718B2, “Aryl ether derivatives and processes for their preparation and herbicidal and desiccant compositions containing them” (Ishihara Sangyo Kaisha, Ltd., priority 2001, dated 2003)

Assays:
Assay type in all cases: in vivo
Conditions in all cases: 14 days after application
[1] = tested on: soybean (Glycine max L., var. Pella 86, SOY); experiment: Pre-emerge greenhouse screening, crop safety (phytotoxicity rating)
Source text: (§1) A standard greenhouse herbicide activity screening system was used to evaluate the herbicidal efficacy and crop safety of these test compounds. Seven broadleaf weed species including redroot pigweed (Amaranthus retroflexus, AMARE), velvetleaf (Abutilon theophrasti, ABUTH), sicklepod (Cassia obtusifolia, CASOB), ivyleaf morningglory (Ipomoea hederacea, IPOHE), lambsquarters (Chenopodium album, CHEAL), common ragweed (Ambrosia artemisiifolia L., AMBEL), and cocklebur (Xanthium strumarium, XANST) were used as test species. Four grass weed species including green foxtail (Setaria viridis, SETVI), barnyardgrass (Echinochloa crus-galli, ECHCG), johnsongrass (Sorghum halepense, SORHA), and large crabgrass (Digitaria sanguinalis, DIGSA) were also used. In addition, three crop species, field corn (Zea mays L., var. Dekalb 535, CORN), soybean (Glycine max L., var. Pella 86, SOY), and upland rice (Oryza sp., var.Tebonnet, RICE) were included.
(§2) All plants were grown in 10 cm square plastic pots which were filled with a sandy loam soil mix. For pre-emerge tests, seeds were planted one day prior to application of the test compounds. For post-emerge tests, seeds were planted 8-21 days prior to the test to allow emergence and good foliage development prior to application of the test substances. At the time of the post-emerge application, plants of all species were usually at the 2-3 leaf stage of development.
(§3) All test compounds were dissolved in acetone and applied to the test units in a volume of 187 1/ha. Test materials were applied at rates ranging from 15 g ai/ha to 1000 g ai/ha using a track sprayer equipped with a TJ8001E even flow flat fan spray nozzle. Plants were arranged on a shelf so that the top of the canopy (post-emerge) or top of the soil surface (pre-emerge) was 40-45 cm below the nozzle. Pressurized air was used to force the test solution through the nozzle as it was mechanically advanced (via electrically driven chain drive) over the top of all test plants/pots. This application simulates a typical commercial field herbicide application.
(§4) In the post-emerge test, a commercial non-ionic surfactant was also included (0.25% v/v) to enhance wetting of the leaf surfaces of target plants. Immediately after application, test units of the pre-emerge applications were watered at the soil surface to incorporate the test materials. Subsequently, these test units were bottom-watered. Post-emerge test units were always bottom-watered.
(§5) At 14 days after application of the test materials, phytotoxicity ratings were recorded. A rating scale of 0-100 was used as previously described in Research Methods in Weed Science, 2nd edition, B. Truelove, Ed., Southern Weed Science Society, Auburn University, Auburn, Ala., 1977. Briefly, “0” corresponds to no damage and “100” corresponds to complete death of all plants in the test unit. This scale was used both to determine efficacy against weed species and damage to crop species. Herbicide activity data for various compounds of this invention, which are shown by compound No. in Tables I-VI, are shown in Tables VIII-IX.

[2] = tested on: field corn (Zea mays L., var. Dekalb 535, CORN); experiment: as above
Source text: as §1, §2, §3, §4, §5

[3] = tested on: upland rice (Oryza sp., var.Tebonnet, RICE); experiment: as above
Source text: as §1, §2, §3, §4, §5

[4] = tested on: field corn (Zea mays L., var. Dekalb 535, CORN); experiment: Post-emerge greenhouse screening, crop safety / corn selectivity (phytotoxicity rating)
Source text: as §1, §2, §3, §4, §5

[5] = tested on: soybean (Glycine max L., var. Pella 86, SOY); experiment: Post-emerge greenhouse screening, crop safety (phytotoxicity rating)
Source text: as §1, §2, §3, §4, §5

[6] = tested on: upland rice (Oryza sp., var.Tebonnet, RICE); experiment: as above
Source text: as §1, §2, §3, §4, §5

[7] = tested on: barnyardgrass (Echinochloa crus-galli, ECHCG); experiment: Pre-emerge greenhouse herbicide activity screening, phytotoxicity rating
Source text: as §1, §2, §3, §4, §5

[8] = tested on: redroot pigweed (Amaranthus retroflexus, AMARE); experiment: as above
Source text: as §1, §2, §3, §4, §5

[9] = tested on: velvetleaf (Abutilon theophrasti, ABUTH); experiment: as above
Source text: as §1, §2, §3, §4, §5

[10] = tested on: johnsongrass (Sorghum halepense, SORHA); experiment: as above
Source text: as §1, §2, §3, §4, §5

[11] = tested on: ivyleaf morningglory (Ipomoea hederacea, IPOHE); experiment: as above
Source text: as §1, §2, §3, §4, §5

[12] = tested on: common ragweed (Ambrosia artemisiifolia L., AMBEL); experiment: as above
Source text: as §1, §2, §3, §4, §5

[13] = tested on: green foxtail (Setaria viridis, SETVI); experiment: as above
Source text: as §1, §2, §3, §4, §5

[14] = tested on: lambsquarters (Chenopodium album, CHEAL); experiment: as above
Source text: as §1, §2, §3, §4, §5

[15] = tested on: large crabgrass (Digitaria sanguinalis, DIGSA); experiment: as above
Source text: as §1, §2, §3, §4, §5

[16] = tested on: sicklepod (Cassia obtusifolia, CASOB); experiment: as above
Source text: as §1, §2, §3, §4, §5

[17] = tested on: barnyardgrass (Echinochloa crus-galli, ECHCG); experiment: Post-emerge greenhouse herbicide activity screening, phytotoxicity rating
Source text: as §1, §2, §3, §4, §5

[18] = tested on: redroot pigweed (Amaranthus retroflexus, AMARE); experiment: as above
Source text: as §1, §2, §3, §4, §5

[19] = tested on: velvetleaf (Abutilon theophrasti, ABUTH); experiment: as above
Source text: as §1, §2, §3, §4, §5

[20] = tested on: johnsongrass (Sorghum halepense, SORHA); experiment: as above
Source text: as §1, §2, §3, §4, §5

[21] = tested on: ivyleaf morningglory (Ipomoea hederacea, IPOHE); experiment: as above
Source text: as §1, §2, §3, §4, §5

[22] = tested on: common ragweed (Ambrosia artemisiifolia L., AMBEL); experiment: as above
Source text: as §1, §2, §3, §4, §5

[23] = tested on: green foxtail (Setaria viridis, SETVI); experiment: as above
Source text: as §1, §2, §3, §4, §5

[24] = tested on: lambsquarters (Chenopodium album, CHEAL); experiment: as above
Source text: as §1, §2, §3, §4, §5

[25] = tested on: large crabgrass (Digitaria sanguinalis, DIGSA); experiment: as above
Source text: as §1, §2, §3, §4, §5

[26] = tested on: sicklepod (Cassia obtusifolia, CASOB); experiment: as above
Source text: as §1, §2, §3, §4, §5

Cn1c(C(F)(F)F)cc(=O)n(-c2cc(Oc3ccccc3)c(Cl)cc2F)c1=S [Compound 1-47]
SOY crop damage, phytotoxicity rating (0-100 scale) ([1]; 125 g ai/ha): 50 | SOY crop damage, phytotoxicity rating (0-100 scale) ([1]; 250 g ai/ha): 65 | CORN crop damage, phytotoxicity rating (0-100 scale) ([2]; 125 g ai/ha): 5 | CORN crop damage, phytotoxicity rating (0-100 scale) ([2]; 250 g ai/ha): 8 | RICE crop damage, phytotoxicity rating (0-100 scale) ([3]; 125 g ai/ha): 15 | RICE crop damage, phytotoxicity rating (0-100 scale) ([3]; 250 g ai/ha): 25 | CORN crop damage, phytotoxicity rating (0-100 scale) ([4]; 125 g ai/ha): 0 | CORN crop damage, phytotoxicity rating (0-100 scale) ([4]; 250 g ai/ha): 0 | SOY crop damage, phytotoxicity rating (0-100 scale) ([5]; 125 g ai/ha): 15 | SOY crop damage, phytotoxicity rating (0-100 scale) ([5]; 250 g ai/ha): 40 | RICE crop damage, phytotoxicity rating (0-100 scale) ([6]; 125 g ai/ha): 0 | RICE crop damage, phytotoxicity rating (0-100 scale) ([6]; 250 g ai/ha): 0 | ECHCG phytotoxicity rating (0-100 scale) ([7]; 125 g ai/ha): 80 | ECHCG phytotoxicity rating (0-100 scale) ([7]; 250 g ai/ha): 85 | AMARE phytotoxicity rating (0-100 scale) ([8]; 125 g ai/ha): 100 | AMARE phytotoxicity rating (0-100 scale) ([8]; 250 g ai/ha): 100 | ABUTH phytotoxicity rating (0-100 scale) ([9]; 125 g ai/ha): 100 | ABUTH phytotoxicity rating (0-100 scale) ([9]; 250 g ai/ha): 100 | SORHA phytotoxicity rating (0-100 scale) ([10]; 125 g ai/ha): 50 | SORHA phytotoxicity rating (0-100 scale) ([10]; 250 g ai/ha): 55 | IPOHE phytotoxicity rating (0-100 scale) ([11]; 125 g ai/ha): 95 | IPOHE phytotoxicity rating (0-100 scale) ([11]; 250 g ai/ha): 98 | AMBEL phytotoxicity rating (0-100 scale) ([12]; 125 g ai/ha): 95 | AMBEL phytotoxicity rating (0-100 scale) ([12]; 250 g ai/ha): 99 | SETVI phytotoxicity rating (0-100 scale) ([13]; 125 g ai/ha): 100 | SETVI phytotoxicity rating (0-100 scale) ([13]; 250 g ai/ha): 100 | CHEAL phytotoxicity rating (0-100 scale) ([14]; 125 g ai/ha): 100 | CHEAL phytotoxicity rating (0-100 scale) ([14]; 250 g ai/ha): 100 | DIGSA phytotoxicity rating (0-100 scale) ([15]; 125 g ai/ha): 95 | DIGSA phytotoxicity rating (0-100 scale) ([15]; 250 g ai/ha): 100 | CASOB phytotoxicity rating (0-100 scale) ([16]; 125 g ai/ha): 90 | CASOB phytotoxicity rating (0-100 scale) ([16]; 250 g ai/ha): 99 | ECHCG phytotoxicity rating (0-100 scale) ([17]; 125 g ai/ha): 60 | ECHCG phytotoxicity rating (0-100 scale) ([17]; 250 g ai/ha): 65 | AMARE phytotoxicity rating (0-100 scale) ([18]; 125 g ai/ha): 100 | AMARE phytotoxicity rating (0-100 scale) ([18]; 250 g ai/ha): 100 | ABUTH phytotoxicity rating (0-100 scale) ([19]; 125 g ai/ha): 100 | ABUTH phytotoxicity rating (0-100 scale) ([19]; 250 g ai/ha): 100 | SORHA phytotoxicity rating (0-100 scale) ([20]; 125 g ai/ha): 0 | SORHA phytotoxicity rating (0-100 scale) ([20]; 250 g ai/ha): 0 | IPOHE phytotoxicity rating (0-100 scale) ([21]; 125 g ai/ha): 75 | IPOHE phytotoxicity rating (0-100 scale) ([21]; 250 g ai/ha): 85 | AMBEL phytotoxicity rating (0-100 scale) ([22]; 125 g ai/ha): 70 | AMBEL phytotoxicity rating (0-100 scale) ([22]; 250 g ai/ha): 75 | SETVI phytotoxicity rating (0-100 scale) ([23]; 125 g ai/ha): 50 | SETVI phytotoxicity rating (0-100 scale) ([23]; 250 g ai/ha): 75 | CHEAL phytotoxicity rating (0-100 scale) ([24]; 125 g ai/ha): 99 | CHEAL phytotoxicity rating (0-100 scale) ([24]; 250 g ai/ha): 100 | DIGSA phytotoxicity rating (0-100 scale) ([25]; 125 g ai/ha): 10 | DIGSA phytotoxicity rating (0-100 scale) ([25]; 250 g ai/ha): 35 | CASOB phytotoxicity rating (0-100 scale) ([26]; 125 g ai/ha): 65 | CASOB phytotoxicity rating (0-100 scale) ([26]; 250 g ai/ha): 65

O=[N+]([O-])c1ccccc1Oc1cc(-c2nn3c(c2Cl)CCCC3)c(F)cc1Cl [Compound 6-19]
SOY crop damage, phytotoxicity rating (0-100 scale) ([1]; 250 g ai/ha): 50 | CORN crop damage, phytotoxicity rating (0-100 scale) ([2]; 250 g ai/ha): 0 | RICE crop damage, phytotoxicity rating (0-100 scale) ([3]; 250 g ai/ha): 0 | CORN crop damage, phytotoxicity rating (0-100 scale) ([4]; 250 g ai/ha): 3 | SOY crop damage, phytotoxicity rating (0-100 scale) ([5]; 250 g ai/ha): 40 | RICE crop damage, phytotoxicity rating (0-100 scale) ([6]; 250 g ai/ha): 35 | ECHCG phytotoxicity rating (0-100 scale) ([7]; 250 g ai/ha): 50 | AMARE phytotoxicity rating (0-100 scale) ([8]; 250 g ai/ha): 100 | ABUTH phytotoxicity rating (0-100 scale) ([9]; 250 g ai/ha): 65 | SORHA phytotoxicity rating (0-100 scale) ([10]; 250 g ai/ha): 65 | IPOHE phytotoxicity rating (0-100 scale) ([11]; 250 g ai/ha): 0 | AMBEL phytotoxicity rating (0-100 scale) ([12]; 250 g ai/ha): 50 | SETVI phytotoxicity rating (0-100 scale) ([13]; 250 g ai/ha): 95 | CHEAL phytotoxicity rating (0-100 scale) ([14]; 250 g ai/ha): 100 | DIGSA phytotoxicity rating (0-100 scale) ([15]; 250 g ai/ha): 90 | CASOB phytotoxicity rating (0-100 scale) ([16]; 250 g ai/ha): 75 | ECHCG phytotoxicity rating (0-100 scale) ([17]; 250 g ai/ha): 60 | AMARE phytotoxicity rating (0-100 scale) ([18]; 250 g ai/ha): 100 | ABUTH phytotoxicity rating (0-100 scale) ([19]; 250 g ai/ha): 100 | SORHA phytotoxicity rating (0-100 scale) ([20]; 250 g ai/ha): 50 | IPOHE phytotoxicity rating (0-100 scale) ([21]; 250 g ai/ha): 100 | AMBEL phytotoxicity rating (0-100 scale) ([22]; 250 g ai/ha): 50 | SETVI phytotoxicity rating (0-100 scale) ([23]; 250 g ai/ha): 65 | CHEAL phytotoxicity rating (0-100 scale) ([24]; 250 g ai/ha): 98 | DIGSA phytotoxicity rating (0-100 scale) ([25]; 250 g ai/ha): 50 | CASOB phytotoxicity rating (0-100 scale) ([26]; 250 g ai/ha): 75
